Laboratory results as given in patent publication US9453026B2, “ACC inhibitors and uses thereof” (Gilead Apollo, Inc., priority 2011, dated 2016).
pIC50: −log10 of the molar value.

Columns and labels:
[1] = biological target: ACC2 (Homo sapiens, UniProt O00763); assay: In vitro ACC2 inhibition assay (ADP-Glo); format: biochemical; details: read-out: ACC2
In short: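 Enzyme (human ACC1 or ACC2) and compound, serially diluted 1:3 over 11 points from a 600 uM DMSO stock, were preincubated 15 min before substrate addition.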

[2] = biological target: ACC1 (Homo sapiens, UniProt Q13085); assay: In vitro ACC1 inhibition assay (ADP-Glo); format: biochemical; details: read-out: ACC1
Protocol: An exemplary procedure for the in vitro ACC inhibition assay, which can be used to determine the inhibitory action of compounds of the invention toward either ACC1 or ACC2, follows. The ADP-Glo™ Kinase Assay kit from Promega was used. The ADP-Glo™ Kinase Assay is a luminescent ADP detection assay to measure enzymatic activity by quantifying the amount of ADP produced during an enzyme reaction. The assay is performed in two steps; first, after the enzyme reaction, an equal volume of ADP-Glo™ Reagent is added to terminate the reaction and deplete the remaining ATP. Second, the Kinase Detection Reagent is added to simultaneously convert ADP to ATP and allow the newly synthesized ATP to be measured using a luciferase/luciferin reaction. Luminescence can be correlated to ADP concentrations by using an ATP-to-ADP conversion curve. The detailed procedure is as follows. 50 μL of the compound being tested (600 uM in DMSO) was added to a 384-well dilution plate. The compound was diluted 1:3 in succession in DMSO for each row for 11 wells. 0.5 μL ACC2 working solution was added to 384-well white Optiplate assay plate. 0.5 μL diluted compound solution in each column from step 2 to assay plate, each row containing 2 replicates. […] The plates were incubated at room temperature for 15 minutes. 5 μL substrate working solution was added to each well to initiate reaction. […] Plates were incubated at room temperature for 60 minutes. 10 μL ADP glo reagent was added. Plates were incubated at room temperature for 40 minutes. 20 μL kinase detection reagent was added.
Data for each concentration, as well as the positive and negative controls were averaged, and the standard deviation calculated. Percent inhibition was calculated by the formula: 100× (average negative control−compound)/(average negative control−average positive control). The IC50 for each compound was calculated by fitting the data with a non-linear regression equation: Y=Bottom+(Top-Bottom)/(1+10^((Log IC50−X)*HillSlope)), where X is the log of compound concentration and Y is percent inhibition.
The compound numbers correspond to the compound numbers in Table 1.

Chain of ACC2 (O00763 whole entry, species assumed): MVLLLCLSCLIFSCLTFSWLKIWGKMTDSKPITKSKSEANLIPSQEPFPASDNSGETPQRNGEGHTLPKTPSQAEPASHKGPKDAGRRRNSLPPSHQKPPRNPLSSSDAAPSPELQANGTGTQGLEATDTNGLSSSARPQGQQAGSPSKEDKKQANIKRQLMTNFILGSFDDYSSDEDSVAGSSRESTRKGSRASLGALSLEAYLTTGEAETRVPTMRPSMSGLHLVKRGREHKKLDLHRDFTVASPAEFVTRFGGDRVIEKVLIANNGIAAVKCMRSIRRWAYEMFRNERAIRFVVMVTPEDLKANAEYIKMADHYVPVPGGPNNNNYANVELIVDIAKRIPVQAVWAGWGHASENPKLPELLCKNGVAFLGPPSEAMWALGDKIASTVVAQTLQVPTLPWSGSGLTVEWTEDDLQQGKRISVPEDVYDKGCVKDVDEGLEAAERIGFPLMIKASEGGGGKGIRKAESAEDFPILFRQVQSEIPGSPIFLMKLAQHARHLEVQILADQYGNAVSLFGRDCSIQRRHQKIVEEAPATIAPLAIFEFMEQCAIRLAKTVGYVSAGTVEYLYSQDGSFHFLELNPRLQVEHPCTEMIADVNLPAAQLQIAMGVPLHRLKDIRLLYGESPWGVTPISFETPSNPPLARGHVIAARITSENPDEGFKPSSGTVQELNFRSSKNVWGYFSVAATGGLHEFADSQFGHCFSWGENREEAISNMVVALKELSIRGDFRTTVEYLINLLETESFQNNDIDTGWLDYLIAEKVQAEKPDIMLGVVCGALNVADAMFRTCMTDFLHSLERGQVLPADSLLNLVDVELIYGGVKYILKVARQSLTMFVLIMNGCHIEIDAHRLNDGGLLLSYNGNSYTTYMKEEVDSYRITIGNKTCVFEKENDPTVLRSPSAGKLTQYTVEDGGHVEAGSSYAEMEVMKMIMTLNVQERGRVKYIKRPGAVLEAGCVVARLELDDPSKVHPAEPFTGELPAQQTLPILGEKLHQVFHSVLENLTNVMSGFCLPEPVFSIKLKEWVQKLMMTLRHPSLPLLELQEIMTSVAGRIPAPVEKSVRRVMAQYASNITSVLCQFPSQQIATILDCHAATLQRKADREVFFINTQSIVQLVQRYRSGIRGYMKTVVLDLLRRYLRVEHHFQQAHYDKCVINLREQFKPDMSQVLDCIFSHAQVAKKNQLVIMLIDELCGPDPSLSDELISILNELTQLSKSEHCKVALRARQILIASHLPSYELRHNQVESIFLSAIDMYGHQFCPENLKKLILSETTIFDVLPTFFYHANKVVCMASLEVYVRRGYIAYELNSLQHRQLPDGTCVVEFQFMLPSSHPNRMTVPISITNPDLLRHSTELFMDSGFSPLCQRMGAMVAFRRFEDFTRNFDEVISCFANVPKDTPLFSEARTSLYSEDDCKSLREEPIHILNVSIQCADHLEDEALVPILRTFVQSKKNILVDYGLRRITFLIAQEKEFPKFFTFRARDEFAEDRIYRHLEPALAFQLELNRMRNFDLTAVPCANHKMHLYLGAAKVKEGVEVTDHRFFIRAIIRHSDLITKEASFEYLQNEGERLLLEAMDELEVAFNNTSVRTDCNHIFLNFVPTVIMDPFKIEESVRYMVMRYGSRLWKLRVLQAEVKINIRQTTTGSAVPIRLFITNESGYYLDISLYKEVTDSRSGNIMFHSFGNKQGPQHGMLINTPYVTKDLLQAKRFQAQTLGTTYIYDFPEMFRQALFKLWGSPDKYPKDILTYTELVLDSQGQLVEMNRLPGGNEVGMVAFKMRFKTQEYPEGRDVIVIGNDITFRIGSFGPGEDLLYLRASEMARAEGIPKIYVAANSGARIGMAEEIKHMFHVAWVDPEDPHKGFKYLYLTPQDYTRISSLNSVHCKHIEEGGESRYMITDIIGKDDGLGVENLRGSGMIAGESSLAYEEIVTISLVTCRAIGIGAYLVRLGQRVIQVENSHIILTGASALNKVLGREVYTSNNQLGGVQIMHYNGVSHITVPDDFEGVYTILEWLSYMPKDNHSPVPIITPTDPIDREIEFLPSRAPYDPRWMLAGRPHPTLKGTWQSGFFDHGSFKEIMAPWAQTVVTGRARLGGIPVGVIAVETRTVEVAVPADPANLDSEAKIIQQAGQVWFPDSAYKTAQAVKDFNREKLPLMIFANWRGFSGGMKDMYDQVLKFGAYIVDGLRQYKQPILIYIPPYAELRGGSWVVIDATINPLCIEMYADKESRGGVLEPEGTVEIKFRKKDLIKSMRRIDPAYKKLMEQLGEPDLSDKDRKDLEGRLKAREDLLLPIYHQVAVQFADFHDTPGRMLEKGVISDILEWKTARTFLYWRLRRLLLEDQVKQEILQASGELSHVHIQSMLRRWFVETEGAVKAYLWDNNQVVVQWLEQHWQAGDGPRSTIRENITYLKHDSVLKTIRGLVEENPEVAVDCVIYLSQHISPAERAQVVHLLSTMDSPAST

Row | pIC50 [1] | pIC50 [2] | Compound
1 | > 7.00 | > 7.00 | COc1ccccc1[C@H](Cn1c(=O)n(C(C)(C)C(N)=O)c(=O)c2c(C)c(-c3ncco3)sc21)O[C@H]1CC[C@@H](O)CC1 [I-279, 2-[1-[(2R)-2-[(4-hydroxycyclohexyl)oxy]-2-(2-methoxyphenyl)ethyl]-5-methyl-6-(1,3-oxazol-2-yl)-2,4-dioxo-1H,2H,3H,4H-thieno[2,3-d]pyrimidin-3-yl]-2-methylpropanamide]
2 | > 5.30 | > 5.30 | CCOC(=O)c1sc2c(c1C)c(=O)n(CCC(N)=O)c(=O)n2CCc1ccccc1 [I-55, ethyl 3-(2-carbamoylethyl)-5-methyl-2,4-dioxo-1-(2-phenylethyl)-1H,2H,3H,4H-thieno[2,3-d]pyrimidine-6-carboxylate]
3 | > 6.00 | > 7.00 | CCOC(=O)c1sc2c(c1C)c(=O)n(C(C)(C)C(=O)O)c(=O)n2C[C@H](OCC(C)C)c1ccccc1 [I-123, 2-[6-(ethoxycarbonyl)-5-methyl-1-[(2R)-2-(2-methylpropoxy)-2-phenylethyl]-2,4-dioxo-1H,2H,3H,4H-thieno[2,3-d]pyrimidin-3-yl]-2-methylpropanoic acid]
4 | > 7.00 | > 7.00 | COc1ccccc1[C@H](Cn1c(=O)n(C(C)(C)C(=O)N2CCCC2)c(=O)c2c(C)c(-c3ncco3)sc21)OC(C)C [I-238, 1-[(2R)-2-(2-methoxyphenyl)-2-(propan-2-yloxy)ethyl]-5-methyl-3-[2-methyl-1-oxo-1-(pyrrolidin-1-yl)propan-2-yl]-6-(1,3-oxazol-2-yl)-1H,2H,3H,4H-thieno[2,3-d]pyrimidine-2,4-dione]
5 | > 6.00 | > 6.00 | Cc1c(-c2ncco2)sc2c1c(=O)n(C(C)(C)C(N)=O)c(=O)n2C[C@H](OC(C)C)c1ccccc1 [I-121, 2-methyl-2-[5-methyl-6-(1,3-oxazol-2-yl)-2,4-dioxo-1-[(2R)-2-phenyl-2-(propan-2-yloxy)ethyl]-1H,2H,3H,4H-thieno[2,3-d]pyrimidin-3-yl]propanamide]
6 | > 5.30 | > 5.30 | CCOC(=O)c1sc2c(c1C)c(=O)n(CC(N)=O)c(=O)n2CCc1ccccc1 [I-14]
7 | > 7.00 | > 7.00 | Cc1c(-c2ncco2)sc2c1c(=O)n(C(C)(C)C(=O)O)c(=O)n2C[C@H](O[C@H]1CC[C@H](O)CC1)c1ccccc1OC(C)C [I-294, 2-(1-((R)-2-(((1r,4R)-4-hydroxycyclohexyl)oxy)-2-(2-isopropoxyphenyl)ethyl)-5-methyl-6-(oxazol-2-yl)-2,4-dioxo-1,2-dihydrothieno[2,3-d]pyrimidin-3(4H)-yl)-2-methylpropanoic acid]
8 | > 6.00 | > 6.00 | CCc1ccccc1CCn1c(=O)n(C(C)(C)C(N)=O)c(=O)c2c(C)c(-c3ncco3)sc21 [I-134, 2-[1-[2-(2-ethylphenyl)ethyl]-5-methyl-6-(1,3-oxazol-2-yl)-2,4-dioxo-1H,2H,3H,4H-thieno[2,3-d]pyrimidin-3-yl]-2-methylpropanamide]
9 | > 6.00 | > 6.00 | CCCc1ccccc1CCn1c(=O)n(C(C)(C)C(=O)O)c(=O)c2c(C)c(-c3ncco3)sc21 [I-147, 2-methyl-2-[5-methyl-6-(1,3-oxazol-2-yl)-2,4-dioxo-1-[2-(2-propylphenyl)ethyl]-1H,2H,3H,4H-thieno[2,3-d]pyrimidin-3-yl]propanoic acid]
10 | > 7.00 | > 7.00 | CCc1ccccc1[C@H](Cn1c(=O)n(C(C)(C)C(=O)O)c(=O)c2c(C)c(-c3ncco3)sc21)O[C@H]1CC[C@@H](O)CC1 [I-245, 2-(1-((R)-2-(2-ethylphenyl)-2-(((1s,4S)-4-hydroxycyclohexyl)oxy)ethyl)-5-methyl-6-(oxazol-2-yl)-2,4-dioxo-1,2-dihydrothieno[2,3-d]pyrimidin-3(4H)-yl)-2-methylpropanoic acid]
11 | > 7.00 | > 7.00 | CCc1ccccc1[C@H](Cn1c(=O)n(C(C)(C)C(=O)O)c(=O)c2c(C)c(-c3ncco3)sc21)OC(C)C [I-180, 2-[1-[(2R)-2-(2-ethylphenyl)-2-(propan-2-yloxy)ethyl]-5-methyl-6-(1,3-oxazol-2-yl)-2,4-dioxo-1H,2H,3H,4H-thieno[2,3-d]pyrimidin-3-yl]-2-methylpropanoic acid]
12 | > 6.00 | > 7.00 | CCc1ccccc1CCn1c(=O)n(C(C)(C)C(=O)O)c(=O)c2c(C)c(-c3ncco3)sc21 [I-133, 2-[1-[2-(2-ethylphenyl)ethyl]-5-methyl-6-(1,3-oxazol-2-yl)-2,4-dioxo-1H,2H,3H,4H-thieno[2,3-d]pyrimidin-3-yl]-2-methylpropanoic acid]
13 | 4.70 to 5.30 | > 7.00 | CCOC(=O)c1sc2c(c1C)c(=O)n(CC(=O)O)c(=O)n2CC(OC(C)C)c1ccccc1 (stereo in doubt) [I-96, (S)-2-(6-(ethoxycarbonyl)-1-(2-isopropoxy-2-phenylethyl)-5-methyl-2,4-dioxo-1,2-dihydrothieno[2,3-d]pyrimidin-3(4H)-yl)acetic acid]
14 | > 7.00 | > 7.00 | COc1ccccc1[C@H](Cn1c(=O)n(C(C)(C)C(N)=O)c(=O)c2c(C)c(-c3ncco3)sc21)OCC1CCOCC1 [I-260, 2-[1-[(2R)-2-(2-methoxyphenyl)-2-(oxan-4-ylmethoxy)ethyl]-5-methyl-6-(1,3-oxazol-2-yl)-2,4-dioxo-1H,2H,3H,4H-thieno[2,3-d]pyrimidin-3-yl]-2-methylpropanamide]
15 | > 7.00 | > 7.00 | Cc1c(-c2ncco2)sc2c1c(=O)n(C(C)(C)C(=O)O)c(=O)n2C[C@H](OC1CCC(O)CC1)c1ccccc1 (stereo partly drawn) [I-164, 2-[1-[(2R)-2-[(4-hydroxycyclohexyl)oxy]-2-phenylethyl]-5-methyl-6-(1,3-oxazol-2-yl)-2,4-dioxo-1H,2H,3H,4H-thieno[2,3-d]pyrimidin-3-yl]-2-methylpropanoic acid]
16 | > 6.00 | > 7.00 | Cc1c(-c2ncco2)sc2c1c(=O)n(C(C)(C)C(=O)O)c(=O)n2C[C@H](OC1CCCCC1)c1ccccc1 [I-140, 2-[1-[(2R)-2-(cyclohexyloxy)-2-phenylethyl]-5-methyl-6-(1,3-oxazol-2-yl)-2,4-dioxo-1H,2H,3H,4H-thieno[2,3-d]pyrimidin-3-yl]-2-methylpropanoic acid]
17 | > 7.00 | > 7.00 | COc1ccccc1[C@H](Cn1c(=O)n(CC(N)=O)c(=O)c2c(C)c(-c3ncco3)sc21)OC1CCOCC1 [I-288]
18 | > 6.00 | > 6.00 | CCOC(=O)c1sc2c(c1C)c(=O)n(C(C)(C)C(=O)O)c(=O)n2C[C@H](OC)c1ccccc1 [I-110, 2-[6-(ethoxycarbonyl)-1-[(2R)-2-methoxy-2-phenylethyl]-5-methyl-2,4-dioxo-1H,2H,3H,4H-thieno[2,3-d]pyrimidin-3-yl]-2-methylpropanoic acid]
19 | > 6.00 | > 6.00 | CCOC(=O)c1sc2c(c1C)c(=O)n(C(C)(C)C(N)=O)c(=O)n2C[C@H](OC(C)C)c1ccccc1 [I-115, ethyl 3-(1-carbamoyl-1-methylethyl)-5-methyl-2,4-dioxo-1-[(2R)-2-phenyl-2-(propan-2-yloxy)ethyl]-1H,2H,3H,4H-thieno[2,3-d]pyrimidine-6-carboxylate]
